We go through ten molecules from PMC10299128, “The Parallel Structure–Activity Relationship Screening of Three Compounds Identifies the Common Agonist Pharmacophore of Pyrrolidine Bis-Cyclic Guanidine Melanocortin-3 Receptor (MC3R) Small-Molecule Ligands” (International Journal of Molecular Sciences, 2023).

Test [1] concerns the target T1, mMC4R (Mus musculus, UniProt P56450). The conditions noted are these: antagonist, Schild analysis with agonist NDP-MSH; mean ± SEM.
Protocol: (§1) Pyrrolidine bis-cyclic guanidine compounds were assessed for biological activity using the AlphaScreen cAMP kit with HEK293 cells stably expressing the mMC1R, mMC3R, mMC4R, or mMC5R, as previously described [37, 38, 39]. […] Compounds were assayed for agonist activity in a 7-point dose–response curve (10^−3 to 10^−9 M). […] The purified compounds were dissolved in DMSO at a stock concentration of 10^−1 M and assayed using HEK293 cells stably expressing the mouse MC1R, MC3R, MC4R, and MC5R using the AlphaScreen cAMP bioassay (PerkinElmer, Waltham, MA, USA) according to the manufacturer’s instructions and as previously described [37, 38, 39].
(§2) Briefly, cells 70−90% confluent were dislodged with Versene (Gibco, Waltham, MA, USA) at 37 °C and 10,000 cells/well were plated in a 384-well plate (Optiplate, PerkinElmer, Waltham, MA, USA) with 10 μL of freshly prepared stimulation buffer (1× HBSS, 5 mM HEPES, 0.5 mM IBMX, 0.1% BSA, pH = 7.4) with 0.5 μg of anti-cAMP acceptor beads per well. The cells were stimulated with the addition of 5 μL of stimulation buffer containing compound or forskolin (10^−4 M) and incubated in the dark at room temperature for 2 h. Following stimulation, streptavidin donor beads (0.5 μg) and biotinylated cAMP (0.62 μmol) were added to the wells in a green light environment with 10 μL of lysis buffer (5 mM HEPES, 0.3% Tween-20, 0.1% BSA, pH = 7.4) and the plates were incubated in the dark at room temperature for an additional 2 h. Plates were read on a Enspire (PerkinElmer, Waltham, MA, USA) Alpha plate reader using a pre-normalized assay protocol (set by the manufacturer).
Test [2] concerns the target T1, mMC4R. Kind of test: cell-based.
Protocol: as §1, §2
Test [3] has as its target T2, mMC1R (Mus musculus, UniProt Q01727). Also noted: expressed in transfected cells; method as in PMID 33886285. The conditions noted are these: cited from earlier work.
Test [4] has as its target T3, mMC3R (Mus musculus, UniProt P33033). More on the design: expressed in transfected cells; method as in PMID 33886285. The conditions noted are these: β-galactosidase reporter gene assay; read-out: mMC3R agonist EC50 (previously reported); cited from earlier work.
Test [5] has as its target T1, mMC4R. Also noted: expressed in transfected cells; method as in PMID 33886285. The conditions noted are these: cited from earlier work; for mMC4R partial stimulation, % activation (previously reported): at 10 µM.
Test [6] concerns the target T1, mMC4R. More on the design: expressed in transfected cells; method as in PMID 33886285. The conditions noted are these: with agonist MTII; cited from earlier work.
Test [7] has as its target T4, mMC5R (Mus musculus, UniProt P41149). More on the design: expressed in transfected cells; method as in PMID 33886285. The conditions noted are these: β-galactosidase reporter gene assay; read-out: mMC5R agonist EC50 (previously reported); cited from earlier work. A general note: A reporter such as luciferase makes a cellular process visible.
Test [8] addresses T2, mMC1R. Kind of test: AlphaScreen cAMP agonist assay, HEK293 cells stably expressing mMC1R.
Protocol: as §1, §2
The target in test [9] is T3, mMC3R. Kind of test: AlphaScreen cAMP agonist assay, HEK293 cells stably expressing mMC3R. The conditions noted are these: for mMC3R agonist efficacy (in words): relative to NDP-MSH, full = >90% receptor activation. (Alpha assays give light when donor and acceptor beads are brought close together.)
Test [10] concerns the target T4, mMC5R. Kind of test: AlphaScreen cAMP agonist assay, HEK293 cells stably expressing mMC5R.
Protocol: as §1, §2
Test [11] has as its target T1, mMC4R. As to the kind of experiment: AlphaScreen cAMP agonist assay, HEK293 cells stably expressing mMC4R. The conditions noted are these: for mMC4R partial agonist efficacy bin: sigmoidal curve, efficacy <90% of NDP-MSH; for mMC4R percent maximal stimulatory response (compared to NDP-MSH): at 1 mM, not enough stimulation to determine EC50.
Protocol: as §1, §2
Another test deals with MC1R. Also noted: method as in PMID 21215742. The conditions noted are these: read-out: MC1R antagonist IC50; cited from earlier work.
A further test has as its system MC5R. Also noted: method as in PMID 21215742. The conditions noted are these: read-out: MC5R antagonist IC50; cited from earlier work.
In test [12] the target is mouse melanocortin-1 receptor (mouse) (UniProt Q01727).
Test [13] addresses mouse melanocortin-3 receptor (mouse) (UniProt P33033).
The target in test [14] is mouse melanocortin-5 receptor (mouse) (UniProt P41149).

Values joined by “and” are separate entries in the source; they are usually repeats but may differ in a detail not shown here. Identical values can stand only once. Like-named read-outs stand apart in the source and are kept apart here.

T4 sequence (P41149 whole entry): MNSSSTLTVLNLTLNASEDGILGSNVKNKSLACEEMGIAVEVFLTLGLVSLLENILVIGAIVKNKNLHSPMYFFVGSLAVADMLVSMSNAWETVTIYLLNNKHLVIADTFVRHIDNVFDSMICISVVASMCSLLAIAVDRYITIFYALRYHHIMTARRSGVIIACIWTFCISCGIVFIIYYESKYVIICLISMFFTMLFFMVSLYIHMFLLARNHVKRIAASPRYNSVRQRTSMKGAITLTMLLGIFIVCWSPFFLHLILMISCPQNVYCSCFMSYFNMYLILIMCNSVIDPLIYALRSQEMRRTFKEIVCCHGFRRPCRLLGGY
T1 sequence (P56450 whole entry): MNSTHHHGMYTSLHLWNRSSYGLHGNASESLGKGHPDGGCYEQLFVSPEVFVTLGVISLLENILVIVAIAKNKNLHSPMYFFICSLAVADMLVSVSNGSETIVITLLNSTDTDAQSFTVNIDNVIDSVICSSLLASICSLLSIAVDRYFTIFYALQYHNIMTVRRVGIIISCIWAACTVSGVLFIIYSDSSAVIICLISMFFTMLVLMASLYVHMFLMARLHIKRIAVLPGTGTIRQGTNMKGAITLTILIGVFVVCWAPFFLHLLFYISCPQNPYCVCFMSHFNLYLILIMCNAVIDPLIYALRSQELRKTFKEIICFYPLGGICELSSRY
T3 sequence (P33033 whole entry): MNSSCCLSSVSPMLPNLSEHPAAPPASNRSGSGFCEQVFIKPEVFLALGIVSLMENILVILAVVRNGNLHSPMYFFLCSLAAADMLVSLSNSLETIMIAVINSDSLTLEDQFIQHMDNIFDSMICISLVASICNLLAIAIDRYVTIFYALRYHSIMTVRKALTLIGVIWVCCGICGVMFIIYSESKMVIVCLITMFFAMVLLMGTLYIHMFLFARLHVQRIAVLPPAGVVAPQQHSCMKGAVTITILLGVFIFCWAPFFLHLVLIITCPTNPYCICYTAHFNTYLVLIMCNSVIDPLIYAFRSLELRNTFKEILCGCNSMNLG
T2 sequence (Q01727 whole entry): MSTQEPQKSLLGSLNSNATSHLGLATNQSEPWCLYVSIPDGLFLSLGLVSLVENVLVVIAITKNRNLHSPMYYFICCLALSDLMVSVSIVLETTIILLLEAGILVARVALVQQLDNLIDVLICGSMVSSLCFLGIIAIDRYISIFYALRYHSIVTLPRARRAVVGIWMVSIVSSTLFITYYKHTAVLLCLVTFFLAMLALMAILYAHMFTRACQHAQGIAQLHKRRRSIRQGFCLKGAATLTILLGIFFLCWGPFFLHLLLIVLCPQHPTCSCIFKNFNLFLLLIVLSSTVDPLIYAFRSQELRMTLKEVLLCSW
mouse melanocortin-5 receptor (mouse), sequence (P41149 whole entry): as the sequence (P41149 whole entry) above
mouse melanocortin-3 receptor (mouse), sequence (P33033 whole entry): as the sequence (P33033 whole entry) above
mouse melanocortin-1 receptor (mouse), sequence (Q01727 whole entry): as the sequence (Q01727 whole entry) above

As for `CC(C)CC1CNC(=N)N1CC1CCCN1CC(Cc1ccccc1)N1CC(C(C)O)N(CC2CCC(C(C)(C)C)CC2)C1=N` (centres unmarked) [Compound 2718.001], the “mMC4R pA2” value on mMC4R [1] was determined as 6.0. At mMC4R [2], this molecule gave a Kb of 1000 nM. On mMC1R [3] (at 10 µM), the “mMC1R partial stimulation, % efficacy (previously reported)” value is 58%. Moreover, the EC50 (commonly the concentration at which the effect is half-maximal) on mMC3R [4] is 310 nM; on mMC5R [7], 530 nM; on mMC1R [8], 320 ± 30 nM; at mMC3R [9], 270 ± 20 nM; on mMC5R [10], 260 ± 30 nM. Further, the “mMC4R partial stimulation, % activation (previously reported)” value at mMC4R [5] was 10–50%. Moreover, the “mMC4R antagonist pA2 (previously reported)” value (from here on “mMC4R antagonist pA2”) on mMC4R [6] is given as 7.0.
Take `CC(C)CC1CNC(=N)N1CC1CCCN1CC(CC1CCCCC1)N1CC(C(C)O)N(CC2CCC(C(C)(C)C)CC2)C1=N` (centres unmarked) [Compound 2718.002]: the “mMC4R pA2” value at mMC4R [1] turned out to be 6.2. At mMC4R [2], this molecule showed a Kb of 631 nM. Besides, the EC50 on mMC1R [3] (β-galactosidase reporter gene assay, read-out: mMC1R agonist EC50 (previously reported)) was 300 nM; on mMC3R [4], 210 nM; on mMC4R [5] (partial agonist, read-out: mMC4R partial agonist EC50 (previously reported)) it was 270 nM; at mMC5R [7] it was 140 nM; at mMC1R [8], 270 ± 20 nM; at mMC3R [9], 240 ± 8 nM. The EC50 worked out at 1200 ± 300 nM on mMC4R [11] and 290 ± 10 nM at mMC5R [10]. Besides, the “mMC4R partial agonist efficacy, % MTII signal (previously reported)” value at mMC4R [5] (relative to MTII) is listed as 45%. The “mMC4R antagonist pA2” value on mMC4R [6] was 5.8. For the same molecule, the “mMC4R partial agonist efficacy bin” value on mMC4R [11] was “A (A (20–50% receptor activation))”.
`CCCC1CN(C(CC2CCCCC2)CN2CCCC2CN2C(=N)NCC2C(C)C)C(=N)N1CC1CCC(C(C)(C)C)CC1` (centres unmarked) [Compound 2718.003]: the “mMC4R pA2” value on mMC4R [1] worked out at 5.9. Further, the Kb at mMC4R [2] was 1260 nM. The “mMC1R partial stimulation (previously reported)” value at mMC1R [3] (at 100 µM) is recorded as 50–90%. Moreover, the EC50 at mMC3R [4] is 350 nM; on mMC5R [7], 540 nM; at mMC1R [8] it was 640 ± 30 nM; at mMC3R [9] it was 2000 ± 300 nM; at mMC4R [11] it was 2500 ± 600 nM; on mMC5R [10], 1200 ± 200 nM. Besides, at mMC4R [5], the “mMC4R partial stimulation, % activation (previously reported)” value is reported as 50%. Besides, the “mMC4R antagonist pA2” value at mMC4R [6] is given as 5.8. The “fold decreased mMC3R potency between the previous reported values and the present study” value on mMC3R [9] (AlphaScreen (present) vs previously reported value [29]) turned out to be 6 fold. In addition, the “mMC4R partial agonist efficacy bin” value at mMC4R [11] was “A (A (20–50% receptor activation))”.
As for `CC(C)C[C@@H]1CNC(=N)N1C[C@@H]1CCCN1C[C@@H](Cc1ccccc1)N1CCN(CC2CCC(C(C)(C)C)CC2)C1=N` (some centres unmarked) [Compound 2718.022], at mMC4R [1], the “mMC4R pA2” value was 6.1. On mMC4R [2], this molecule gave a Kb of 794 nM. For the same molecule, the EC50 on mMC1R [8] was 400 ± 40 nM; at mMC3R [9] it was 380 ± 70 nM; on mMC5R [10], 320 ± 10 nM. Besides, the “mMC3R agonist efficacy (in words)” value on mMC3R [9] is “full agonist efficacy”.
Consider `C[C@H](O)[C@@H]1CN([C@H](Cc2ccccc2)CN2CCC[C@H]2CN2CCNC2=N)C(=N)N1CC1CCC(C(C)(C)C)CC1` (some centres unmarked) [Compound 2718.024], for which the “mMC4R pA2” value on mMC4R [1] is 6.3. For the same molecule, the Kb on mMC4R [2] was 501 nM. Also, the EC50 at mMC1R [8] is 390 ± 50 nM; on mMC3R [9], 3000 ± 700 nM; on mMC5R [10] it was 480 ± 50 nM. For the same molecule, the “fold decreased mMC3R agonist potency” value on mMC3R [9] (relative to 2718.001) was 11 fold and 10 fold. Besides, the “mMC3R agonist efficacy (in words)” value at mMC3R [9] is on record as “full agonist efficacy”. Also, the “mMC4R percent maximal stimulatory response (compared to NDP-MSH)” value on mMC4R [11] amounted to 50% @ 1 mM.
As to `CC(C)C[C@@H]1CNC(=N)N1C[C@@H]1CCCN1C[C@@H](CC1CCCCC1)N1CCN(CC2CCC(C(C)(C)C)CC2)C1=N` (some centres unmarked) [Compound 2718.025], the “mMC4R pA2” value on mMC4R [1] is listed as 6.1. On mMC4R [2], the Kb is 794 nM. Moreover, the EC50 stood at 510 ± 90 nM at mMC1R [8], 1000 ± 300 nM at mMC3R [9] and 600 ± 100 nM at mMC5R [10]. The “fold decreased mMC3R agonist potency” value on mMC3R [9] (relative to 2718.002) worked out at 4 fold. In addition, the “mMC3R agonist efficacy (in words)” value at mMC3R [9] is “full agonist efficacy”. In addition, the “mMC4R percent maximal stimulatory response (compared to NDP-MSH)” value at mMC4R [11] amounted to 60% @ 1 mM.
As for `C[C@H](O)[C@@H]1CN([C@H](CC2CCCCC2)CN2CCC[C@H]2CN2CCNC2=N)C(=N)N1CC1CCC(C(C)(C)C)CC1` (some centres unmarked) [Compound 2718.026], at mMC4R [1], the “mMC4R pA2” value is 6.2. In addition, at mMC4R [2], the Kb is 631 nM. In addition, the EC50 at mMC1R [8] amounted to 460 ± 30 nM; at mMC3R [9] it was 2600 ± 200 nM; on mMC4R [11], 1800 ± 500 nM; at mMC5R [10] it was 300 ± 10 nM. The “fold decreased mMC3R agonist potency” value at mMC3R [9] (relative to 2718.002) was 11 fold and 10 fold. The “mMC3R agonist efficacy (in words)” value on mMC3R [9] is listed as “full agonist efficacy”. Further, the “mMC4R partial agonist efficacy bin” value on mMC4R [11] is listed as “A (A (20–50% receptor activation))”.
With `CCC[C@@H]1CN([C@H](CC2CCCCC2)CN2CCC[C@H]2CN2CCNC2=N)C(=N)N1CC1CCC(C(C)(C)C)CC1` (some centres unmarked) [Compound 2718.029], the “mMC4R pA2” value on mMC4R [1] is recorded as 5.8. Moreover, at mMC4R [2], the Kb was 1580 nM. For the same molecule, the EC50 at mMC1R [8] was determined as 1100 ± 300 nM; at mMC3R [9], 3300 ± 100 nM; at mMC4R [11] it was 2900 ± 400 nM; at mMC5R [10] it was 1300 ± 100 nM. In addition, the “mMC3R agonist efficacy (in words)” value on mMC3R [9] is reported as “full agonist efficacy”. Further, the “mMC4R partial agonist efficacy bin” value on mMC4R [11] was “B (B (51–90% receptor activation))”.
Consider `COc1ccccc1-c1nc(=Nc2ccccc2)sn1-c1ccccc1OC` [JNJ-10229570], for which the IC50 in the test with MC1R and in the test with MC5R was 200 to 300 nM in each case.
NDP-MSH (peptide): the EC50 of agonist activity, AlphaScreen cAMP assay, HEK293 cells stably expressing mMC1R in [12] was determined as 0.055 nM. The same molecule showed an EC50 of agonist activity, AlphaScreen cAMP assay, HEK293 cells stably expressing mMC3R in [13] of 0.069 nM. In addition, the EC50 of agonist activity, AlphaScreen cAMP assay, HEK293 cells stably expressing mMC5R in [14] turned out to be 0.1 nM.
